# ChEMBL document CHEMBL3885861, “Open TG-GATES”
# Species on record: Rattus norvegicus
# Assay: Open TG-GATES - Regimen: Daily Repeat
# Type: toxicity, organism-based, Sprague-Dawley
# Design: regimen Daily Repeat, gender Male, age 6 weeks
# Conditions: in vivo, po, route gavage; for TP / gamma-GTP / ALP / ALT / AST / CRE / Ca / Cl / DBIL / GLC / IP / K / LDH / RALB / TBIL / TC / TG: tissue Plasma; for APTT / Bas / Eos / Fbg / Ht / Lym / MCH / MCHC / MCV / Mono / PT / Plat / RBC / Ret / WBC / Neu: tissue Blood; for KIDNEY_L / KIDNEY_R / KIDNEY_TOTAL: tissue Kidney
# [1] = 10 mg/kg, […], dose level Low, time 28 day
# [2] = 30 mg/kg, 72 h, dose level Middle, time 3 day
# [3] = 30 mg/kg, […], dose level Middle, time 7 day
# [4] = 30 mg/kg, […], dose level Middle, time 14 day
# [5] = 30 mg/kg, […], dose level Middle, time 28 day
smiles,measurement,setting,value
Cn1c(=O)c2c(ncn2C)n(C)c1=O [CAFFEINE],TP,[1],6 g/dL
same,gamma-GTP,[1],2.4 IU/L
same,TERMINAL_BW,[2],223.8 g
same,APTT,[2],20.9 s
same,Bas,[2],0%
same,Eos,[2],0.8%
same,Fbg,[2],330 mg/dL
same,Ht,[2],41.1%
same,Lym,[2],84%
same,MCH,[2],21.2 pg
same,MCHC,[2],33.4%
same,MCV,[2],63.6 fL
same,Mono,[2],1.2%
same,PT,[2],15.5 s
same,Plat,[2],114.5 x10_4/uL
same,RBC,[2],646.4 x10_4/ul
same,Ret,[2],5.2%
same,WBC,[2],61.4 x10_2/uL
same,KIDNEY_L,[2],1 g
same,KIDNEY_R,[2],1 g
same,KIDNEY_TOTAL,[2],2 g
same,ALP,[2],1647.8 IU/L
same,ALT,[2],40 IU/L
same,AST,[2],67.4 IU/L
same,CRE,[2],0.2 mg/dL
same,Ca,[2],10.7 mg/dL
same,Cl,[2],108.8 meq/L
same,DBIL,[2],0 mg/dL
same,GLC,[2],179.6 mg/dL
same,IP,[2],8.1 mg/dL
same,K,[2],4.4 meq/L
same,LDH,[2],140.2 IU/L
same,RALB,[2],3.1 g/dL
same,TBIL,[2],0.004 mg/dL
same,TC,[2],73.8 mg/dL
same,TG,[2],87.6 mg/dL
same,TP,[2],5.6 g/dL
same,gamma-GTP,[2],1.2 IU/L
same,TERMINAL_BW,[3],245.2 g
same,TERMINAL_BW,[4],286.3 g
same,TERMINAL_BW,[5],380.2 g
same,APTT,[3],23.2 s
same,Bas,[3],0%
same,Eos,[3],0.8%
same,Fbg,[3],310.2 mg/dL
same,Lym,[3],80.8%
same,MCHC,[3],33.6%
same,MCV,[3],60.9 fL
same,Mono,[3],1.4%
same,Neu,[3],16%
same,PT,[3],15.2 s
same,Plat,[3],115.9 x10_4/uL
same,RBC,[3],687.8 x10_4/ul
same,Ret,[3],5.4%
same,WBC,[3],79 x10_2/uL
same,APTT,[4],23.9 s
same,Bas,[4],0%
same,Eos,[4],1%
same,Fbg,[4],309 mg/dL
same,Ht,[4],43.4%
same,Lym,[4],76.2%
same,MCH,[4],19.7 pg
same,MCHC,[4],33.7%
same,MCV,[4],58.4 fL
same,Mono,[4],2%
same,Neu,[4],20%
same,PT,[4],15.2 s
same,Plat,[4],109.9 x10_4/uL
same,RBC,[4],743.8 x10_4/ul
same,Ret,[4],3.9%
same,WBC,[4],108 x10_2/uL
same,Bas,[5],0%
same,Eos,[5],1%
same,Fbg,[5],315.2 mg/dL
same,Ht,[5],43.1%
same,Lym,[5],79.6%
same,MCH,[5],19.4 pg
same,MCHC,[5],35%
same,MCV,[5],55.4 fL
same,Mono,[5],2.4%
same,PT,[5],15.5 s
same,Plat,[5],100.3 x10_4/uL
same,RBC,[5],778.6 x10_4/ul
same,Ret,[5],2.7%
same,WBC,[5],99.4 x10_2/uL
same,KIDNEY_L,[3],1 g
same,KIDNEY_R,[3],1 g
same,KIDNEY_TOTAL,[3],2.1 g
same,KIDNEY_L,[4],1.1 g
same,KIDNEY_R,[4],1.2 g
same,KIDNEY_TOTAL,[4],2.3 g
same,KIDNEY_L,[5],1.5 g
same,KIDNEY_R,[5],1.5 g
same,KIDNEY_TOTAL,[5],3 g
same,ALP,[3],1455 IU/L
same,ALT,[3],45.6 IU/L
same,AST,[3],75.6 IU/L
same,CRE,[3],0.1 mg/dL
same,Ca,[3],10.4 mg/dL
same,Cl,[3],106.4 meq/L
same,DBIL,[3],0 mg/dL
same,GLC,[3],182.4 mg/dL
same,IP,[3],7.7 mg/dL
same,K,[3],4.1 meq/L
same,LDH,[3],158.8 IU/L
same,RALB,[3],3.1 g/dL
same,TBIL,[3],0.01 mg/dL
same,TC,[3],74.6 mg/dL
same,TG,[3],79.8 mg/dL
same,TP,[3],5.7 g/dL
same,gamma-GTP,[3],1.6 IU/L
same,ALP,[4],1460.4 IU/L
same,ALT,[4],47.6 IU/L
same,AST,[4],75.6 IU/L
same,CRE,[4],0.2 mg/dL
same,Ca,[4],10.4 mg/dL
same,Cl,[4],106.6 meq/L
same,DBIL,[4],0 mg/dL
same,GLC,[4],196 mg/dL
same,IP,[4],7 mg/dL
same,K,[4],4.2 meq/L
same,LDH,[4],145.8 IU/L
same,RALB,[4],3 g/dL
same,TBIL,[4],0.002 mg/dL
same,TC,[4],73.2 mg/dL
same,TG,[4],139.6 mg/dL
same,TP,[4],5.9 g/dL
same,gamma-GTP,[4],2.4 IU/L
same,ALP,[5],1003 IU/L
same,ALT,[5],44.8 IU/L
same,AST,[5],71.8 IU/L
same,CRE,[5],0.2 mg/dL
same,Ca,[5],10.7 mg/dL
same,Cl,[5],105.2 meq/L
same,DBIL,[5],0 mg/dL
same,GLC,[5],189.6 mg/dL
same,IP,[5],7.6 mg/dL
same,K,[5],3.9 meq/L
same,LDH,[5],126.6 IU/L
same,RALB,[5],3.2 g/dL
same,TBIL,[5],0.01 mg/dL
same,TC,[5],85.8 mg/dL
